Structures can show the parent of a compound that is named as a salt.
Tested on: NCI-H292 lung cancer cells
Test: FDA drug screening, complete media vs cholesterol-free media without statin (TABLE 1)
Format: cell-based, human
Conditions: not given

Q: How did the Cholesterol-free turn out when `C[N+]1(C)[C@@H]2CC(OC(=O)C(O)(c3cccs3)c3cccs3)C[C@H]1[C@@H]1O[C@@H]12.[Br-]` (some centres unmarked) [Tiotropium (Bromide)] was run?
A: 1.101

Q: What about the Complete of the same compound?
A: 0.8685

Q: And the Difference?
A: −0.23

Same assay, conditions: Complete minus Cholesterol-free; >0 enhanced anti-cancer activity, about 0 neutral, <0 antagonist

Q: With `Cc1ccsc1C(=CCCN1CCC[C@@H](C(=O)O)C1)c1sccc1C` [Tiagabine (hydrochloride)] as the compound, how does the Difference read?
A: −0.25

Q: With `CN(C)c1cc(NC(=O)CNC(C)(C)C)c(O)c2c1C[C@H]1C[C@H]3[C@H](N(C)C)C(O)=C(C(N)=O)C(=O)[C@@]3(O)C(O)=C1C2=O` [Tigecycline (tetramesylate)] as the compound, how does the Difference read?
A: 0.02

Q: For `CCN(CC)CCOc1ccc2c(c1)C(=O)c1cc(OCCN(CC)CC)ccc1-2` [Tilorone (dihydrochloride)], which Difference is on record?
A: −0.30

Q: With `Clc1ccc(C(Cn2ccnc2)OCc2ccsc2Cl)c(Cl)c1` (centres unmarked) [Tioconazole] as the compound, how does the Difference read?
A: −0.27

Q: For `CC(S)C(=O)NCC(=O)O` (centres unmarked) [Tiopronin], which Difference is on record?
A: −0.20

Q: `N=C1CCCN1Cc1nc(O)nc(O)c1Cl` [Tipiracil (hydrochloride)] was tested. Which Difference did it give?
A: 0.03

Same assay, conditions: NCI-H292 cells, cholesterol-free media without statin

Q: With `Cc1ccsc1C(=CCCN1CCC[C@@H](C(=O)O)C1)c1sccc1C` [Tiagabine (hydrochloride)] as the compound, how does the Cholesterol-free read?
A: 1.406

Q: Which Cholesterol-free does the source give for `CCN(CC)CCOc1ccc2c(c1)C(=O)c1cc(OCCN(CC)CC)ccc1-2` [Tilorone (dihydrochloride)] here?
A: 1.404

Q: With `Clc1ccc(C(Cn2ccnc2)OCc2ccsc2Cl)c(Cl)c1` (centres unmarked) [Tioconazole] as the compound, how does the Cholesterol-free read?
A: 1.207

Q: With `CC(S)C(=O)NCC(=O)O` (centres unmarked) [Tiopronin] as the compound, how does the Cholesterol-free read?
A: 0.9241

Same assay, conditions: NCI-H292 cells, cholesterol-free media without statin, FDA drug library screen

Q: `CN(C)c1cc(NC(=O)CNC(C)(C)C)c(O)c2c1C[C@H]1C[C@H]3[C@H](N(C)C)C(O)=C(C(N)=O)C(=O)[C@@]3(O)C(O)=C1C2=O` [Tigecycline (tetramesylate)] was tested. Which Cholesterol-free did it give?
A: 0.1191

Q: For `N=C1CCCN1Cc1nc(O)nc(O)c1Cl` [Tipiracil (hydrochloride)], which Cholesterol-free is on record?
A: 0.8754

Same assay, conditions: NCI-H292 cells, complete media

Q: With `Cc1ccsc1C(=CCCN1CCC[C@@H](C(=O)O)C1)c1sccc1C` [Tiagabine (hydrochloride)] as the compound, how does the Complete read?
A: 1.159

Q: `CCN(CC)CCOc1ccc2c(c1)C(=O)c1cc(OCCN(CC)CC)ccc1-2` [Tilorone (dihydrochloride)] was tested. Which Complete did it give?
A: 1.104

Q: How did the Complete turn out when `Clc1ccc(C(Cn2ccnc2)OCc2ccsc2Cl)c(Cl)c1` (centres unmarked) [Tioconazole] was run?
A: 0.9413

Q: With `CC(S)C(=O)NCC(=O)O` (centres unmarked) [Tiopronin] as the compound, how does the Complete read?
A: 0.7208

Same assay, conditions: NCI-H292 cells, complete media, FDA drug library screen

Q: With `CN(C)c1cc(NC(=O)CNC(C)(C)C)c(O)c2c1C[C@H]1C[C@H]3[C@H](N(C)C)C(O)=C(C(N)=O)C(=O)[C@@]3(O)C(O)=C1C2=O` [Tigecycline (tetramesylate)] as the compound, how does the Complete read?
A: 0.1424

Q: How did the Complete turn out when `N=C1CCCN1Cc1nc(O)nc(O)c1Cl` [Tipiracil (hydrochloride)] was run?
A: 0.9052

Tested on: NCI-H292 lung cancer cells
Test: FDA drug screening, complete media vs cholesterol-free media with simvastatin (TABLE 2)
Format: cell-based, human
Conditions: not given

Q: Which results are given for `C[N+]1(C)[C@@H]2CC(OC(=O)C(O)(c3cccs3)c3cccs3)C[C@H]1[C@@H]1O[C@@H]12.[Br-]` (some centres unmarked) [Tiotropium (Bromide)]?
A: Cholesterol-free media + simvastatin (0.04 μM): 2.468; Complete Media: 1.196; Difference: −1.27

Same assay, conditions: NCI-H292 cells, FDA drug library screen, cholesterol-free media with simvastatin 0.04 μM

Q: Which “Cholesterol-free media + simvastatin (0.04 μM)” value does the source give for `CN(C)c1cc(NC(=O)CNC(C)(C)C)c(O)c2c1C[C@H]1C[C@H]3[C@H](N(C)C)C(O)=C(C(N)=O)C(=O)[C@@]3(O)C(O)=C1C2=O` [Tigecycline (tetramesylate)] here?
A: 0.4075

Q: Which “Cholesterol-free media + simvastatin (0.04 μM)” value does the source give for `Clc1ccc(C(Cn2ccnc2)OCc2ccsc2Cl)c(Cl)c1` (centres unmarked) [Tioconazole] here?
A: 0.669

Q: Which “Cholesterol-free media + simvastatin (0.04 μM)” value does the source give for `N=C1CCCN1Cc1nc(O)nc(O)c1Cl` [Tipiracil (hydrochloride)] here?
A: 0.8843

Same assay, conditions: NCI-H292 cells, FDA drug library screen, complete media

Q: `CN(C)c1cc(NC(=O)CNC(C)(C)C)c(O)c2c1C[C@H]1C[C@H]3[C@H](N(C)C)C(O)=C(C(N)=O)C(=O)[C@@]3(O)C(O)=C1C2=O` [Tigecycline (tetramesylate)] was tested. Which “Complete Media” value did it give?
A: 0.333

Q: With `Clc1ccc(C(Cn2ccnc2)OCc2ccsc2Cl)c(Cl)c1` (centres unmarked) [Tioconazole] as the compound, how does the “Complete Media” value read?
A: 0.9672

Q: Which “Complete Media” value does the source give for `N=C1CCCN1Cc1nc(O)nc(O)c1Cl` [Tipiracil (hydrochloride)] here?
A: 1.03

Same assay, conditions: NCI-H292 cells, cholesterol-free media with simvastatin 0.04 μM; cell growth value in FDA drug screen

Q: With `Cc1ccsc1C(=CCCN1CCC[C@@H](C(=O)O)C1)c1sccc1C` [Tiagabine (hydrochloride)] as the compound, how does the “Cholesterol-free media + simvastatin (0.04 μM)” value read?
A: 0.8465

Q: How did the “Cholesterol-free media + simvastatin (0.04 μM)” value turn out when `CC(S)C(=O)NCC(=O)O` (centres unmarked) [Tiopronin] was run?
A: 1.026

Same assay, conditions: NCI-H292 cells, complete media; cell growth value in FDA drug screen

Q: Which “Complete Media” value does the source give for `Cc1ccsc1C(=CCCN1CCC[C@@H](C(=O)O)C1)c1sccc1C` [Tiagabine (hydrochloride)] here?
A: 0.9752

Same assay, conditions: NCI-H292 cells, drug in cholesterol-free media with simvastatin 0.04 μM

Q: `CCN(CC)CCOc1ccc2c(c1)C(=O)c1cc(OCCN(CC)CC)ccc1-2` [Tilorone (dihydrochloride)] was tested. Which “Cholesterol-free media + simvastatin (0.04 μM)” value did it give?
A: 1.099

Same assay, conditions: NCI-H292 cells, drug in complete media

Q: With `CCN(CC)CCOc1ccc2c(c1)C(=O)c1cc(OCCN(CC)CC)ccc1-2` [Tilorone (dihydrochloride)] as the compound, how does the “Complete Media” value read?
A: 0.8748

Same assay, conditions: complete media minus cholesterol-free media + simvastatin; >0 enhanced anti-cancer activity, about 0 neutral, <0 antagonist

Q: How did the Difference turn out when `Cc1ccsc1C(=CCCN1CCC[C@@H](C(=O)O)C1)c1sccc1C` [Tiagabine (hydrochloride)] was run?
A: 0.13

Q: How did the Difference turn out when `Clc1ccc(C(Cn2ccnc2)OCc2ccsc2Cl)c(Cl)c1` (centres unmarked) [Tioconazole] was run?
A: 0.30

Q: Which Difference does the source give for `CC(S)C(=O)NCC(=O)O` (centres unmarked) [Tiopronin] here?
A: 0.12

Q: With `N=C1CCCN1Cc1nc(O)nc(O)c1Cl` [Tipiracil (hydrochloride)] as the compound, how does the Difference read?
A: 0.15

Same assay, conditions: complete media vs cholesterol-free media + simvastatin (0.04 μM); >0 enhanced anti-cancer activity, about 0 neutral, <0 antagonist

Q: For `CN(C)c1cc(NC(=O)CNC(C)(C)C)c(O)c2c1C[C@H]1C[C@H]3[C@H](N(C)C)C(O)=C(C(N)=O)C(=O)[C@@]3(O)C(O)=C1C2=O` [Tigecycline (tetramesylate)], which Difference is on record?
A: −0.07

Q: Which Difference does the source give for `CCN(CC)CCOc1ccc2c(c1)C(=O)c1cc(OCCN(CC)CC)ccc1-2` [Tilorone (dihydrochloride)] here?
A: −0.22

Source: US20250144067A1, “PERSONALIZED STARVATION THERAPY FOR CANCER” (Faeth Therapeutics, Inc., priority 2021, published 2025)
